Read-outs that look alike come from different tables or passages of the source. Numbered stars: 1 amine (or outer) side, 2 acyl side, 3 side chain; on linkers, the order of the positions; unused ones are H or OH. Bridge positions count the residues as written; N and C are the ends. Side chains are listed from the residue outwards. Peptide text beside a SMILES is read from it. * marks the point of attachment. C20 diacid = O=C(O)CCCCCCCCCCCCCCCCCCC(=O)*; γGlu = O=C(O)[C@H](CCC(=O)[*:2])N[*:1]; AEEA = NCCOCCOCC(=O)O
Tests used:
[1] = target: T1, human amylin receptor (membranes from Amylin 3(a)/CRE-luc cells) (Homo sapiens, UniProt O60896+P30988); assay: ASSAY (V) binding to the human amylin receptor (SPA, 125I-rat amylin);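 note: competition binding of cell membranes (35 ng/µL) mixed with SPA beads in 384-well plates at 40 µL total volume, read by scintillation counting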
T1 construct: expressed in transfected cells
T1 sequence (P30988 25-474): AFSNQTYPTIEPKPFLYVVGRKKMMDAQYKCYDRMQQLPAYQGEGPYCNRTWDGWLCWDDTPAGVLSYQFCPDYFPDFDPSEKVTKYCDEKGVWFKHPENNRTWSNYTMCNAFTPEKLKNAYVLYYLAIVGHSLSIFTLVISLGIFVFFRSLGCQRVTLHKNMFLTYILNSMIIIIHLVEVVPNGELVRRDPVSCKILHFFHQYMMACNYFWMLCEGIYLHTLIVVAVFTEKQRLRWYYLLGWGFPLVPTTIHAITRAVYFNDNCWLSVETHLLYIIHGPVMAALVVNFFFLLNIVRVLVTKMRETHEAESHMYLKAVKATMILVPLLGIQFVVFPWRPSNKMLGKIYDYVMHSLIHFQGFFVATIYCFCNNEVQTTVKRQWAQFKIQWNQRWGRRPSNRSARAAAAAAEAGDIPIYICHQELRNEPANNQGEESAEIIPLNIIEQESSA
T1 sequence (O60896 24-148 partner): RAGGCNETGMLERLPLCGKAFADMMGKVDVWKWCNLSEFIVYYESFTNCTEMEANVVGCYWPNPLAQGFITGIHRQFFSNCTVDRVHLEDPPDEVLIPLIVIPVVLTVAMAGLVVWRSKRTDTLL

[2] = target: T2, human amylin 3(a) receptor (human calcitonin receptor + RAMP-3) in BHK570 cells (Homo sapiens, UniProt O60896+P30988); assay: ASSAY (II)a functional assay, human amylin receptor (CRE luciferase); assay type: cell-based
T2 construct: expressed in transfected cells
Method in brief: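 Receptor activation is measured as cAMP-driven CRE-luciferase expression in BHK cells expressing the calcitonin receptor, with RAMP-3 co-expressed to form the amylin 3(a) receptor. Cells are exposed to compound for 3 hours at 37° C, and luciferase is then quantified by luminescence.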

[3] = ASSAY (IV) determination of solubility; assay type: physicochemical
Method in brief: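 UPLC read-out of polypeptide concentration after centrifugation. Samples: aqueous polypeptide stock ([…]) + 100 mM buffer 1:1, glycylglycine pH 3.0–5.0 or bistrispropane pH 6.0–8.0; 18 h, RT.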

[4] = Table 5, selectivity, hCTR bind IC50 / hAmylin-R bind IC50
[5] = Table 5a, selectivity, hCTR bind IC50 / hAmylin-R bind IC50
[6] = Table 5b, selectivity, hCTR bind IC50 / hAmylin-R bind IC50
[7] = Table 5c, selectivity, hCTR bind IC50 / hAmylin-R bind IC50
[8] = Table 7, human binding selectivity, included for comparison
[9] = Table 7a (preferred compounds), human binding selectivity, included for comparison
[10] = ratio of human calcitonin receptor binding IC50 to human amylin receptor binding IC50
[11] = hCTR funct. EC50 divided by hAmylin-R funct. EC50
[12] = hCTR funct. EC50 over hAmylin-R funct. EC50
[13] = human functional selectivity: hCTR funct. EC50 / hAmylin-R funct. EC50
[14] = bistrispropane buffer, pH 6.5, read-out: Solubility pH 6.5 Concentration
[15] = bistrispropane buffer, pH 7.5, read-out: Solubility pH 7.5 Concentration
[16] = bistrispropane buffer, pH 6.0, read-out: Solubility pH 6.0 Concentration
[17] = bistrispropane buffer, pH 7.0, read-out: Solubility pH 7.0 Concentration
[18] = bistrispropane buffer, pH 8.0, read-out: Solubility pH 8.0 Concentration
[19] = glycylglycine buffer, pH 3.0, read-out: Solubility pH 3.0 Concentration
[20] = glycylglycine buffer, pH 4.0, read-out: Solubility pH 4.0 Concentration
[21] = glycylglycine buffer, pH 5.0, read-out: Solubility pH 5.0 Concentration

Structure (SMILES)	IC50 ([1]; Table 4, read-out: hAmylin-R bind IC50) [nM]	Ratio hCT/hAmylin binding [1, 4]	Ratio hCT/hAmylin binding [1, 5]	Ratio hCT/hAmylin binding [1, 6]	Ratio hCT/hAmylin binding [1, 7]	Ratio hCT/hAmylin binding [1, 8]	Ratio hCT/hAmylin binding [1, 9]	Ratio hCT/hAmylin binding [1, 10]	Ratio hCT/hAmylin funct. [2, 11]	Ratio hCT/hAmylin funct. [2, 12]	EC50 ([2]; human amylin receptor functional potency, assay (II), read-out: hAmylin-R funct. EC50) [nM]	Ratio hCT/hAmylin funct. [2, 13]	solubility at 18 h [3, 14] [µM]	solubility at 18 h [3, 15] [µM]	solubility at 18 h [3, 16] [µM]	solubility at 18 h [3, 17] [µM]	solubility at 18 h [3, 18] [µM]	solubility at 18 h [3, 19] [µM]	solubility at 18 h [3, 20] [µM]	solubility at 18 h [3, 21] [µM]
CC[C@H](C)[C@H](NC(=O)[C@H](C)NC(=O)CNC(=O)[C@H](Cc1ccccc1)NC(=O)[C@H](CC(N)=O)NC(=O)[C@@H]1CCCN1C(=O)[C@H](CO)NC(=O)[C@H](CO)NC(=O)[C@H](Cc1c[nH]cn1)NC(=O)[C@H](CCCNC(=N)N)NC(=O)[C@H](CC(C)C)NC(=O)[C@H](Cc1ccccc1)NC(=O)[C@H](CC(N)=O)NC(=O)[C@H](C)NC(=O)[C@H](CC(C)C)NC(=O)[C@H](CCCNC(=N)N)NC(=O)[C@H](CCC(N)=O)NC(=O)[C@@H](NC(=O)[C@H](C)NC(=O)[C@@H]1CSSC[C@H](NC(=O)[C@@H](N)CCCCNC(=O)CC[C@H](NC(=O)CCCCCCCCCCCCCCCCCCC(=O)O)C(=O)O)C(=O)N[C@@H](CC(N)=O)C(=O)N[C@@H]([C@@H](C)O)C(=O)N[C@@H](C)C(=O)N[C@@H]([C@@H](C)O)C(=O)N1)[C@@H](C)O)C(=O)N1CCC[C@H]1C(=O)N[C@@H](CO)C(=O)N[C@@H](CO)C(=O)N[C@H](C(=O)N[C@@H](CC(N)=O)C(=O)N[C@H](C(=O)NCC(=O)N[C@@H](CO)C(=O)N[C@@H](CC(N)=O)C(=O)N[C@H](C(=O)N[C@@H](Cc1ccc(O)cc1)C(N)=O)[C@@H](C)O)C(C)C)[C@@H](C)O [Example 48]	0.443	69.7	69.7	69.7	69.7	69.7	69.7	69.7	17.0	17.0	0.116	17.0	≥ 200	≥ 200	≥ 200	≥ 200	≥ 200	≥ 200	≥ 200	≥ 200
CC[C@H](C)[C@H](NC(=O)[C@H](C)NC(=O)CNC(=O)[C@H](Cc1ccccc1)NC(=O)[C@H](CC(N)=O)NC(=O)[C@@H]1CCCN1C(=O)[C@H](CO)NC(=O)[C@H](CO)NC(=O)[C@H](Cc1c[nH]cn1)NC(=O)[C@H](CCCNC(=N)N)NC(=O)[C@H](CC(C)C)NC(=O)[C@H](Cc1ccccc1)NC(=O)[C@H](CCCNC(=N)N)NC(=O)[C@H](C)NC(=O)[C@H](CC(C)C)NC(=O)[C@H](CCCNC(=N)N)NC(=O)[C@H](CCC(N)=O)NC(=O)[C@@H](NC(=O)[C@H](C)NC(=O)[C@@H]1CSSC[C@H](NC(=O)[C@@H](N)CCCCNC(=O)CC[C@H](NC(=O)CCCCCCCCCCCCCCCCCCC(=O)O)C(=O)O)C(=O)N[C@@H](CC(N)=O)C(=O)N[C@@H]([C@@H](C)O)C(=O)N[C@@H](C)C(=O)N[C@@H]([C@@H](C)O)C(=O)N1)[C@@H](C)O)C(=O)N1CCC[C@H]1C(=O)N[C@@H](CO)C(=O)N[C@@H](CO)C(=O)N[C@H](C(=O)N1CCC[C@H]1C(=O)N[C@H](C(=O)NCC(=O)N[C@@H](CO)C(=O)N[C@@H](CC(N)=O)C(=O)N[C@H](C(=O)N[C@@H](Cc1ccc(O)cc1)C(N)=O)[C@@H](C)O)C(C)C)[C@@H](C)O [Example 63] (H-K([γGlu-C20 diacid])CNTATCATQRLARFLRHSSPNFGAIPSSTPVGSNTY-NH2; disulfide 2-7 (inferred); N-terminus assumed)	–	157.1	157.1	157.1	157.1	157.1	157.1	157.1	138.7	138.7	–	138.7	≥ 200	≥ 200	≥ 200	≥ 200	≥ 200	≥ 200	≥ 200	≥ 200
CC[C@H](C)[C@H](NC(=O)[C@H](C)NC(=O)CNC(=O)[C@H](Cc1ccccc1)NC(=O)[C@H](CC(N)=O)NC(=O)[C@@H]1CCCN1C(=O)[C@H](CO)NC(=O)[C@H](CO)NC(=O)[C@H](Cc1c[nH]cn1)NC(=O)[C@H](CCCNC(=N)N)NC(=O)[C@H](CC(C)C)NC(=O)[C@H](Cc1ccccc1)NC(=O)[C@H](CC(N)=O)NC(=O)[C@H](C)NC(=O)[C@H](CC(C)C)NC(=O)[C@H](CCCNC(=N)N)NC(=O)[C@H](CCC(N)=O)NC(=O)[C@@H](NC(=O)[C@H](C)NC(=O)[C@@H]1CSSC[C@H](NC(=O)[C@@H](N)CCCCNC(=O)COCCOCCNC(=O)CC[C@H](NC(=O)CCCCCCCCCCCCCCCCCCC(=O)O)C(=O)O)C(=O)N[C@@H](CC(N)=O)C(=O)N[C@@H]([C@@H](C)O)C(=O)N[C@@H](C)C(=O)N[C@@H]([C@@H](C)O)C(=O)N1)[C@@H](C)O)C(=O)N1CCC[C@H]1C(=O)N1CCC[C@H]1C(=O)N[C@@H](CO)C(=O)N[C@H](C(=O)N1CCC[C@H]1C(=O)N[C@H](C(=O)NCC(=O)N[C@@H](CO)C(=O)N[C@@H](CC(N)=O)C(=O)N[C@H](C(=O)N[C@@H](Cc1ccc(O)cc1)C(N)=O)[C@@H](C)O)C(C)C)[C@@H](C)O [Example 53] (H-K([AEEA-γGlu-C20 diacid])CNTATCATQRLANFLRHSSPNFGAIPPSTPVGSNTY-NH2; disulfide 2-7; N-terminus assumed)	–	103.5	103.5	103.5	103.5	103.5	103.5	103.5	9.8	–	–	9.8	≥ 200	≥ 200	≥ 200	≥ 200	≥ 200	≥ 200	≥ 200	≥ 200

— patent publication US9023789B2, “Amylin analogs and pharmaceutical compositions thereof” (Novo Nordisk A/S, priority 2012, dated 2015)
